US20220089663A1, “PROTEINS AND FLUOROPHORE-CONTAINING COMPOUNDS SELECTIVE FOR NaV1.7” (MEMORIAL SLOAN KETTERING CANCER CENTER, priority 2019, published 2022)

Tests used:
[1] = acute in vivo toxicity after intravenous injection; set-up: species or system mouse
Method: Acute in vivo toxicity. All animal experiments were performed in accordance with protocols approved by the Institutional Animal Care and Use Committee of MSK and followed the National Institute of Health guidelines for animal welfare. Six athymic nude mice 6-8 weeks old were purchased from Envigo RMS, Inc. An intravenous (IV) catheter was placed in tail vein of each mouse and they were anesthetized using Isoflurane (Novaplus, Telangana-India). Anesthesia was maintained using 1.0 to 1.5 L/min of Isoflurane and 2 L/min of oxygen. Three animals were injected with 68 μM, 7 nmol Hsp1a-FL in 100 μL of PBS, and the other three with […], of PBS. Animals were monitored using a rodent surgical monitor (Indus instruments, Houston, Tex.) before, during, and up to 16 minutes after injection. Numeric data points represent averaged values of 5±1 seconds duration. Data was collected before injection, 15 seconds after injection, 5 minutes after injection and 15 minutes after injection. Mouse body core temperature was measured by placing a rectal probe and electronically regulated via a surgical platform. The high-resolution electrocardiogram (EKG) was measured by placing non-invasive electrodes on the 4 paws and electrical contact was assured using a conducting gel (Electrode cream, Indus instruments, Houston, Tex.). Heart rate was automatically calculated from the R-R peaks derived from the EKG signal. Peripheral capillary oxygen saturation (SpO2) was non-invasively measured by placing a clip sensor on the animal's left thigh.
Statistical Analysis. Data were statistically analyzed by generalized estimating equations followed by LSD post hoc test when appropriate using SPSS 23.0. During animal toxicity studies, data points representing loss of signal were excluded from the analysis. Loss of signal was defined by a brief contact loss between the monitoring equipment and the mice (creating a “false” zero or −1 result). Loss of signal was corrected by placing the electrode in close contact to the mice. Average and standard deviations were calculated for each mouse.
Unless otherwise stated, data points represent mean values and error bars represent the standard deviation of biological replicates (mean±SEM). All p-values were calculated using a Student's unpaired t-test. Statistical significance was considered for p-values<0.05 and as follows: ns=not significant, *p<0.05, **p<0.01, ***p<0.001. Mann-Whitney tests were used for analysis of the unpaired samples (e.g. vital signs in mice injected with Hsp1a and mice from the control group) and the Wilcoxon test was used for analysis of paired samples (e.g. vital signs from same mouse before and after injection). Statistical significance was determined with alpha=0.05. Analysis and figures were prepared in GraphPad Prism 8.

hNav1.7 = biological target: T1, hNav1.7 (Homo sapiens, UniProt Q15858); experiment: automated whole-cell patch clamp (QPatch 16X), HEK293-hNav1.7; format: cell-based
T1 construct: host or cells: HEK293

in vitro = details: human, serum
[2] = 10 μM, human serum, 37° C.
mouse sciatic nerves = experiment: epifluorescence imaging (IVIS Spectrum) of sciatic nerves and organs 30 min after injection; format: in vivo; details: 30 minutes after systemic injection
Method: Animal Model. Female athymic nude mice (4-8 week-old, athymic-Nude (outbred) (Stock #: 088; Envigo, USA) were allowed to acclimatize at the Memorial Sloan Kettering Cancer Center (MSK) vivarium for 1 week with ad libitum food and water prior to the experimental procedure. For imaging experiments, animals were sacrificed 30 min post-tail vein injection of Hs1a-FL, Hs1a/Hs1a-FL, Hsp1a-FL, Hsp1a/Hsp1a-FL, or PBS. All animal experiments were performed in accordance with institutional guidelines and approved by the IACUC of MSK, following NIH guidelines for animal welfare.
Epifluorescence Imaging. Animals were intravenously injected with Hsp1a-FL (7 nmol, 68 μM of Hsp1a-FL in 100 μL of PBS, n=9), or Hs1a-FL (4 nmol, 45 μM of Hs1a-FL in 100 μL of PBS, n=3). To assess the specificity of the Hsp1a-FL or Hs1a-FL accumulation, animals were injected with a combination of Hsp1a and Hsp1a-FL (Hsp1a-FL, 68 μM, 7 nmol and Hsp1a 204 μM, 21 nmol in 100 μL PBS, n=9), Hs1a and Hs1a-FL (Hs1a-FL, 45 μM, 4 nmol and Hs1a, 120 μM, 12 nmol in 100 μL PBS, n=3) or PBS (n=9). Animals were sacrificed 30 min post-injection and epifluorescence images obtained. Epifluorescence images of the right sciatic nerve (RSN) and the left sciatic nerve (LSN) were obtained in situ. Epifluorescence of the biodistribution of the peptides in excited RSN, LSN, muscle, heart, kidney, liver, and brain were acquired with IVIS Spectrum (PerkinElmer) using a predefined GFP filterset (e.g., excitation=465/30 nm, emission=520-580 nm) based on the particular fluorophore employed in the compounds. Autofluorescence was removed through spectral unmixing. Semiquantitative analysis of the Hsp1a-FL or Hs1a-FL signal was conducted by measuring the average radiant efficiency (in units of unit [p/s/cm^2/sr]/[μW/cm^2]) in regions of interest (ROIs) that were placed on all resected organs under white light guidance.

T1 sequence (Q15858 whole entry): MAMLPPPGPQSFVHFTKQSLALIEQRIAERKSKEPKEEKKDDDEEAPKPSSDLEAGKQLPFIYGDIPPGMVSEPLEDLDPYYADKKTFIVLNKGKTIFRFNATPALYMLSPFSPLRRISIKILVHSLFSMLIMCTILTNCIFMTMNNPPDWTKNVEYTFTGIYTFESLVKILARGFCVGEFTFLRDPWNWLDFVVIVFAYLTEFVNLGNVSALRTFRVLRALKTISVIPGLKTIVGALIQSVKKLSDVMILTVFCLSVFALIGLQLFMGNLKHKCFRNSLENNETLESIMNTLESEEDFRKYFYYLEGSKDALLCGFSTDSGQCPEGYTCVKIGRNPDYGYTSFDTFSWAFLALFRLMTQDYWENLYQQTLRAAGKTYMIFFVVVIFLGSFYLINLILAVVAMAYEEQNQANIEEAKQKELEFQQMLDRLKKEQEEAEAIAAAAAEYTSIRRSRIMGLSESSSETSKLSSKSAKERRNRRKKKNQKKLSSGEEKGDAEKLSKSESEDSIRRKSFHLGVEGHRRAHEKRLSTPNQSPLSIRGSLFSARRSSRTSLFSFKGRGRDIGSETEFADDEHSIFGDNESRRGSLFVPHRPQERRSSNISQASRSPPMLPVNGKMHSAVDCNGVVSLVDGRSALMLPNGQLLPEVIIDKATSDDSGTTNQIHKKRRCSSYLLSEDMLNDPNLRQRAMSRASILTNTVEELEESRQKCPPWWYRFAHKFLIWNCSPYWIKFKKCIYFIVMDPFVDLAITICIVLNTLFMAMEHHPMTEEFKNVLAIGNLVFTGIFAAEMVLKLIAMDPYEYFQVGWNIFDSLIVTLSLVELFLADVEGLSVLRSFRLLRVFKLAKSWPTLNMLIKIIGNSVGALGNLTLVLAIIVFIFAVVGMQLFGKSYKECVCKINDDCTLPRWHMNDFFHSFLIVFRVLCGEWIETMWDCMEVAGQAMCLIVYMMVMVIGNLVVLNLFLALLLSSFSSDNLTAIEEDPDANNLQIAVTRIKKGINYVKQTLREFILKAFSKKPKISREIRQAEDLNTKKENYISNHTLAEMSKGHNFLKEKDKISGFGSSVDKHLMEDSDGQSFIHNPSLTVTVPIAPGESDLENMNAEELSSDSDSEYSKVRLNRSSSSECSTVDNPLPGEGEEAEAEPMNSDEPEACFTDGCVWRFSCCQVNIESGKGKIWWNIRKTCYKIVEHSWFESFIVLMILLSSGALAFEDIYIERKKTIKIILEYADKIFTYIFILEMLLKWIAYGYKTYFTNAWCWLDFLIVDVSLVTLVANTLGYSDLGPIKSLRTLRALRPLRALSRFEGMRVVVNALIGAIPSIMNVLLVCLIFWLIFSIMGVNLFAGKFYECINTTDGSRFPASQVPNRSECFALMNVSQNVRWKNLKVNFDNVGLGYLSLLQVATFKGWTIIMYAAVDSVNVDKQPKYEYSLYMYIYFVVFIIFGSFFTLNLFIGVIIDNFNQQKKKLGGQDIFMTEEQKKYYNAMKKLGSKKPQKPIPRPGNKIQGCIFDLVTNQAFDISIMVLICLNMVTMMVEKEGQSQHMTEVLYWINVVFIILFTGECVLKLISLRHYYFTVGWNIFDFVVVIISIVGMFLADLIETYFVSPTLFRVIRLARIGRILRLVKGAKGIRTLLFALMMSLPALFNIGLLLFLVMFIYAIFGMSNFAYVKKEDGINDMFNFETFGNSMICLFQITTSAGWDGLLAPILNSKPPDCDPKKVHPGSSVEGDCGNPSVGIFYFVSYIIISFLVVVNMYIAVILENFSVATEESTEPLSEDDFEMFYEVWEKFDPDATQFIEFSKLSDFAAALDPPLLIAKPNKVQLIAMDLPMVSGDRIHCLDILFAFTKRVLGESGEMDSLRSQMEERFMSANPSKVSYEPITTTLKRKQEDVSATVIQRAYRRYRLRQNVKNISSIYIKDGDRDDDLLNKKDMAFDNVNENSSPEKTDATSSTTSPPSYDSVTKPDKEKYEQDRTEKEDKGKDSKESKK
T1 sequence (Q07699 19-218, further chain): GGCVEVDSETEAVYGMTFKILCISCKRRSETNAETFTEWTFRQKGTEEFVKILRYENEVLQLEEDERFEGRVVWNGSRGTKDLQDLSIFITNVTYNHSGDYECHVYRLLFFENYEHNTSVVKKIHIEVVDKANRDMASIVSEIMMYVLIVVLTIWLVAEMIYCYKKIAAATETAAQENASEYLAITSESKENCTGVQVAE

For `CC[C@H](C)[C@H](NC(=O)[C@H](CCCCN)NC(=O)[C@@H]1CSSC[C@@H]2NC(=O)[C@@H]3CCCN3C(=O)[C@H](CCCNC(=N)N)NC(=O)[C@H](CCC(=O)O)NC(=O)[C@H](CO)NC(=O)[C@H](CC(=O)O)NC(=O)[C@@H]3CSSC[C@H](NC(=O)[C@H](C(C)C)NC(=O)[C@H](CC(C)C)NC(=O)CNC(=O)[C@H](CCC(=O)O)NC(=O)[C@H](CSSC[C@H](NC(=O)[C@@H](N)Cc4ccc(O)cc4)C(=O)N[C@@H](CCC(N)=O)C(=O)N[C@@H](CCCCN)C(=O)N[C@@H](Cc4ccccc4)C(=O)N[C@@H](CC(C)C)C(=O)N[C@@H](Cc4c[nH]c5ccccc45)C(=O)N[C@@H]([C@@H](C)O)C(=O)N3)NC2=O)C(=O)N[C@@H](CCCNC(=N)N)C(=O)N[C@@H](CC(C)C)C(=O)N[C@@H](Cc2c[nH]c3ccccc23)C(=O)N1)C(=O)N[C@@H](CC(N)=O)C(N)=O` [Hsp1a], the average core temperature ([1]; 15 seconds post injection) was 34.5 °C, the average core temperature ([1]; 5 min post-injection) was 34.6 °C and the average core temperature ([1]; 15 minutes post-injection) was 34.6 °C. For the same molecule, the EKG pattern ([1]; before and up to 16 minutes after injection) was “No changes were observed”, the “pIC50 difference to sHsp1a on hNav1.7” value (hNav1.7) was “no significant pIC50s difference” and the IC50 (hNav1.7; HEK293 cells stably expressing human channel, read-out: IC50 Nav1.7) was 0.013 µM.

Work on `CSCC[C@@H]1NC(=O)[C@H](CC(C)C)NC(=O)[C@H](CCCNC(=N)N)NC(=O)[C@H](CO)NC(=O)[C@@H]2CSSC[C@@H]3NC(=O)[C@H](CO)NC(=O)CNC(=O)[C@H]([C@@H](C)O)NC(=O)[C@H](CSSC[C@H](N)C(=O)N[C@@H](CCCCN)C(=O)NCC(=O)N[C@@H](CCCCN)C(=O)NCC(=O)N[C@@H](C)C(=O)N[C@@H](CCCCN)C(=O)N2)NC(=O)[C@H](CSSC[C@@H](C(N)=O)NC(=O)[C@H](CCCCN)NC(=O)CNC(=O)[C@H](CO)NC(=O)[C@H](CCCNC(=N)N)NC3=O)NC(=O)[C@H](CC(=O)O)NC(=O)[C@H](Cc2ccc(O)cc2)NC1=O` [MVIIA] yielded a remaining at 24 h (in vitro) of 50%.

With `CC[C@H](C)[C@@H]1NC(=O)[C@H](CCCNC(=N)N)NC(=O)[C@H](CC(=O)O)NC(=O)[C@H](CCSC)NC(=O)[C@H](CCCNC(=N)N)NC(=O)CNC(=O)CNC(=O)[C@H](Cc2ccccc2)NC(=O)[C@@H](NC(=O)[C@H](CO)NC(=O)[C@H](CO)NC(=O)[C@H](CCCNC(=N)N)NC(=O)[C@H](CCCNC(=N)N)NC(=O)[C@H](CC(C)C)NC(=O)[C@@H](N)CO)CSSC[C@@H](C(=O)N[C@@H](CC(N)=O)C(=O)N[C@@H](CO)C(=O)N[C@@H](Cc2ccccc2)C(=O)N[C@@H](CCCNC(=N)N)C(=O)N[C@@H](Cc2ccc(O)cc2)C(=O)O)NC(=O)CNC(=O)[C@H](CC(C)C)NC(=O)CNC(=O)[C@H](CO)NC(=O)[C@H](CCC(N)=O)NC(=O)[C@H](C)NC(=O)CNC1=O` [hANP, reference compound] the “time of incubation in which degraded” value [2] was 1 to 2 h.

In the case of “YCQK(BODIPY665)FLWTCDSERPCCEGLVCRLWCKIN-NH2 (N-terminal YCQK(BODIPY665) extension; C-terminal amide) [Hsp1a-BODIPY665]”, the “biodistribution in various tissues” value (mouse sciatic nerves) is reported as “limited to the peripheral nervous system”.

In the case of “YCQK(CY7.5)FLWTCDSERPCCEGLVCRLWCKIN-NH2 (N-terminal YCQK(CY7.5) extension; C-terminal amide) [Hsp1a-CY7.5]”, the “biodistribution in various tissues” value (mouse sciatic nerves) is reported as “limited to the peripheral nervous system”.

With “YCQK(DY-684)FLWTCDSERPCCEGLVCRLWCKIN-NH2 (N-terminal YCQK(DY-684) extension; C-terminal amide) [Hsp1a-DY-684]” the “biodistribution in various tissues” value (mouse sciatic nerves) was “limited to the peripheral nervous system”.

In the case of “YCQK(IR-800)FLWTCDSERPCCEGLVCRLWCKIN-NH2 (N-terminal YCQK(IR-800) extension; C-terminal amide) [Hsp1a-IR800]”, the “biodistribution in various tissues” value (mouse sciatic nerves) is reported as “limited to the peripheral nervous system”.

With “YCQK(Jane1ia669)FLWTCDSERPCCEGLVCRLWCKIN-NH2 (N-terminal YCQK(Janelia669) extension; C-terminal amide) [Hsp1a-Janelia669]” the “biodistribution in various tissues” value (mouse sciatic nerves) was “limited to the peripheral nervous system”.
